Results from patent publication US9567333B2, “Triazolopyridyl compounds as aldosterone synthase inhibitors” (Merck Sharp & Dohme Corp., priority 2011, dated 2017).

Tests used:
human CYP11B1 = human CYP11B1 (Homo sapiens (Human), UniProt P15538); assay: V79-Human-CYP11B1 cell assay; format: cell-based; conditions: V79 cells stably expressing human CYP11B1; 250 nM 11-deoxycortisol substrate; cortisol by HTRF
Method: (§1) Methods for V79-Human-CYP11B2 and V79-Human-CYP11B1 Assays: V79 cell lines stably expressing the either the human CYP11B2 or the human CYP11B1 enzyme were generated using a standard transfection protocol. V79 cells were transfected with plasmids pTriEx3-Hygro-hCyp11B2 or pTriEx3-Hygro-hCyp11B1 using Lipofectamine2000 reagent. V79 cells that stably express the human CYP11B2 or human CYP11B1 enzyme were selected for and maintained in DMEM supplemented with 10% FBS and 400 µg/mL hygromycin for ˜2 weeks. Single cell clones were generated by infinite dilution in DMEM supplemented with 10% FBS and 400 µg/mL hygromycin until single colonies were obtained. Clones V79-hCYP11B2-CLE9 and V79-hCYP11B1-8CL7, were determined to produce the most aldosterone and cortisol, respectively, and were selected for inhibitor screening. For testing of inhibitors, cells were harvested at 80% confluency with 0.05% Trypsan-EDTA, washed once in PBS, and reconstituted in DMEM+0.1% BSA media at a cell concentration of 600,000 cells/mL for the CYP11B2 assay and 280,000 cells/ml for the CYP11B1 assay. 25 μL of cells were added to a 384 well tissue culture treated plate and mixed with 0.3 μL of inhibitor or DMSO (1% final DMSO concentration) for 1 hour at 37° C., 5% CO2. After pre-incubation with inhibitor, the reaction was initiated by adding 5 μL of substrate (final concentration of 125 nM 11-deoxycorticosterone for the CYP11B2 assay or 250 nM 11-deoxycortisol for the CYP11B1 assay). The reaction was carried out for 3 hours at 37° C., 5% CO2 and was stopped by harvesting the supernatants. The amount of product in the supernatant (aldosterone for CYP11B2 assay and cortisol for the CYP11B1 assay) was measured using HTRF-based assay kit (Aldosterone HTRF-CisBio #64ALDPEB, Cortisol HTRF-CisBio #63IDC002-CORT). IC50s for the inhibitor were determined by plotting the amount of product formed against the concentration of inhibitor using sigmoidal dose-response curve (variable slope) fit in GraphPad.

human CYP11B2 = human CYP11B2 (Homo sapiens (Human), UniProt P19099); assay: V79-Human-CYP11B2 cell assay; format: cell-based; conditions: V79 cells stably expressing human CYP11B2; 125 nM 11-deoxycorticosterone substrate; aldosterone by HTRF
human CYP11B2, sequence (P19099 25-503): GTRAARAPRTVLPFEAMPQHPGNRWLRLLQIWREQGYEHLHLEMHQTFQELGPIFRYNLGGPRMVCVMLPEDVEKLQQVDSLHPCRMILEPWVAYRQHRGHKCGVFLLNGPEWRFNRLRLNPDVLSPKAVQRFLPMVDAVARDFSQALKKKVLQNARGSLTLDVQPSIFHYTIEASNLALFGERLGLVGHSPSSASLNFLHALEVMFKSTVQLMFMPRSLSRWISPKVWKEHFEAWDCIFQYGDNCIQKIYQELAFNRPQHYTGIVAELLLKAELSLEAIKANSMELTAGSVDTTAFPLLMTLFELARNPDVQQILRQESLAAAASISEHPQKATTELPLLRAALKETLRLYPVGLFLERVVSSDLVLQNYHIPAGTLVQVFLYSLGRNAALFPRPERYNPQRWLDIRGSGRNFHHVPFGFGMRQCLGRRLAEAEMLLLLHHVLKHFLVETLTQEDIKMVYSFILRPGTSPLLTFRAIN
Method: as §1

human CYP11B1, sequence (P15538 25-503): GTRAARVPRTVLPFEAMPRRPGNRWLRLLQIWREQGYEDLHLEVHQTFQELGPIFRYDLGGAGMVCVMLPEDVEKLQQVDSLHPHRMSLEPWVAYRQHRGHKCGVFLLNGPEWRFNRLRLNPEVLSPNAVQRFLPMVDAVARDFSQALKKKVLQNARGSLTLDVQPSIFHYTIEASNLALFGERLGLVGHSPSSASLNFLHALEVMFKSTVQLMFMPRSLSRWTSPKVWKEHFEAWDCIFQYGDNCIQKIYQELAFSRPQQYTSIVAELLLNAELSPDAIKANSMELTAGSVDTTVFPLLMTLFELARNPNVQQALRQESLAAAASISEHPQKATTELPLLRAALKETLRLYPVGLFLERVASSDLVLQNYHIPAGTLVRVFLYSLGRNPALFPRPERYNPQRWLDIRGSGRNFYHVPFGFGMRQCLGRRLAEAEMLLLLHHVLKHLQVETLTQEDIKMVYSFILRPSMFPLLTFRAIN

| SMILES | IC50 (human CYP11B1) [nM] | IC50 (human CYP11B2) [nM] |
| --- | --- | --- |
| c1ccc2c(-c3nc4ccccn4n3)cncc2c1 [Example 5, 4-([1,2,4]triazolo[1,5-a]pyridin-2-yl)isoquinoline] | > 8330 | 138 |
| Clc1cccn2nc(-c3cncc4ccccc34)nc12 [Example 7, 4-(8-chloro-[1,2,4]triazolo[1,5-a]pyridin-2-yl)isoquinoline] | > 8330 | 171 |
| CC(C)(O)c1cncc(-c2nc3ccc(F)cn3n2)c1 [Example 12, 2-(5-(6-fluoro-[1,2,4]triazolo[1,5-a]pyridin-2-yl)pyridin-3-yl)propan-2-ol] | > 8330 | 1070 |
| Cc1cccc2nc(-c3cncc(Br)c3)nn12 [Example 13, 2-(5-bromopyridin-3-yl)-5-methyl-[1,2,4] triazolo[1,5-a]pyridine] | > 8330 | 884 |
| Fc1cc(F)c2nc(-c3cncc4ccccc34)nn2c1 [Example 18, 4-(6,8-difluoro-[1,2,4]triazolo[1,5-a]pyridin-2-yl)isoquinoline] | > 8330 | 126 |
| Fc1ccn2nc(-c3cncc4ccccc34)nc2c1 [Example 20, 4-(7-fluoro-[1,2,4]triazolo[1,5-a]pyridin-2-yl)isoquinoline] | 1080 | 22 |
| Fc1ccc2nc(-c3cncc4ccccc34)nn2c1 [Example 21, 4-(6-fluoro-[1,2,4]triazolo[1,5-a]pyridin-2-yl)isoquinoline] | 2150 | 46 |
